Assay in all cases: NCI-60 cell line screen, 48 h
Test [1] has as its system MDA-MB-231.
Test [2] has as its system TK-10.
In test [3] the test system is HCC 2998.
Test [4] relates to OVCAR-8.
The test system of test [5] is MOLT-4.
Test [6] has as its system SN12C.
Test [7] concerns SK-MEL-28.
Test [8] relates to HOP-62.
Test [9] concerns MDA-N.
Test [10] has as its system RPMI-8226.
The subject of test [11] is NCI-H23.
The subject of test [12] is Malme-3M.
Test [13] concerns HOP-92.
Test [14] has as its system A498.
Test [15] relates to SF-539.
Test [16] deals with SF-295.
Test [17] deals with LOX IMVI.
In test [18] the test system is SK-OV-3.
Test [19] deals with OVCAR-4.
In test [20] the test system is DU-145.

We go through 10 compounds from ChEMBL document CHEMBL1201862, “PubChem BioAssay data set” (2004).

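Briefly, cells in 96-well plates were exposed to five compound concentrations for 48 h, and endpoints were estimated by linear interpolation. GI50 is the concentration that inhibits growth by half.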 Activity calls are given as the source filed them. Rule as the data show it: active = GI50 up to about 1.1 µM and inactive = higher.

`COc1ccc(C(=O)NCCN(C)C)c2nc3ccccc3cc12`: the GI50 in test [1] is 2.12 µM (inactive); in [2] it was 1.72 µM (inactive); in test [3] it was 2.04 µM (inactive); in [4] it was 0.655 µM (active); in test [5], 0.0411 µM (active); in test [6], 0.386 µM (active). In addition, the GI50 in test [7] is 2 µM (inactive); in [8] it was 0.353 µM (active); in [9] it was 1.46 µM (inactive); in [10], 0.354 µM (active); in test [11], 0.366 µM (active); in test [12] it was 0.841 µM (active). The GI50 in test [13] is 1.32 µM (inactive); in test [14] it was 0.114 µM (active); in test [15], 1.31 µM (inactive); in [16] it was 0.653 µM (active); in test [17], 0.279 µM (active); in test [18], 1.56 µM (inactive). Also, the GI50 is 1.54 µM (inactive) in [19] and 0.753 µM (active) in [20].

As to `COC(=O)C1=C(OC(=O)/C(=C/c2ccc(Cl)cc2)c2ccc(Cl)cc2)C(C(=O)OC)[C@@]2(O)[C@@H](C(=O)OC)[C@H](C)C[C@@H]1[C@@H]2C(=O)OC` (stereo not given in full), the GI50 in [1] is > 71.9 µM (inactive); in test [2], > 100 µM (inactive); in test [3] it was > 73.6 µM (inactive); in test [4] it was 25.1 µM (inactive); in test [5] it was 0.328 µM (active); in test [6], > 100 µM (inactive). For the same compound, the GI50 in test [7] was > 100 µM (inactive); in test [8], > 100 µM (inactive); in [9], > 100 µM (inactive); in test [10], 18 µM (inactive); in test [11], 25.2 µM (inactive); in test [12] it was 29 µM (inactive). The GI50 is 6.67 µM (inactive) in [13]; > 100 µM (inactive) in test [14]; > 100 µM (inactive) in test [15]; 3.22 µM (inactive) in test [16]; > 100 µM (inactive) in test [17]; > 100 µM (inactive) in test [18]. The GI50 is 50.8 µM (inactive) in test [19] and > 100 µM (inactive) in [20].

On to `O=c1c(F)cn(Cc2c(Cl)cccc2Cl)c(=O)n1Cc1c(Cl)cccc1Cl`, for which the GI50 in test [1] was > 31.6 µM (inactive); in [2], > 31.6 µM (inactive); in test [3], > 31.6 µM (inactive); in [4] it was > 31.6 µM (inactive); in test [5], 25.6 µM (inactive); in test [6] it was > 31.6 µM (inactive). Also, the GI50 in test [7] was > 31.6 µM (inactive); in test [8], > 31.6 µM (inactive); in test [9], > 31.6 µM (inactive); in test [10] it was > 31.6 µM (inactive); in test [11], 27.7 µM (inactive); in test [12] it was > 31.6 µM (inactive). The GI50 in [13] was 20.3 µM (inactive); in test [14] it was > 31.6 µM (inactive); in test [15], > 31.6 µM (inactive); in test [16], > 31.6 µM (inactive); in test [17], > 31.6 µM (inactive); in [18], > 31.6 µM (inactive). Further, the GI50 in test [19] was 17.1 µM (inactive); in [20], > 100 µM (inactive).

As to `C[C@]1(O)CC(=O)c2c(c(-c3ccc4cc5c(c(O)c4c3O)C(=O)C[C@@](C)(O)C5)c3cccc(O)c3c2O)C1`, the GI50 in [1] is 4.91 µM (inactive); in test [2] it was 6.82 µM (inactive); in test [3], 4.58 µM (inactive); in test [4], 5.02 µM (inactive); in test [5], 9.44 µM (inactive); in test [6], 6.22 µM (inactive). Further, the GI50 is 10.4 µM (inactive) in test [7]; 3.48 µM (inactive) in test [8]; 4.56 µM (inactive) in test [9]; 4.67 µM (inactive) in [10]; 3.69 µM (inactive) in test [11]; 6.35 µM (inactive) in [12]. Further, the GI50 in [13] is 2.58 µM (inactive); in [14], 5.42 µM (inactive); in test [15], 2.75 µM (inactive); in test [16], 4.86 µM (inactive); in [17] it was 6.37 µM (inactive); in test [18], 10.3 µM (inactive). Further, the GI50 was 7 µM (inactive) in test [19] and 5.53 µM (inactive) in test [20].

Turning to `O=c1nc(N2CCN(c3ccccc3)CC2)ccn1C1OC(CO)C(O)C1O` (stereo not given), the GI50 is > 100 µM (inactive) in test [1]; > 100 µM (inactive) in test [2]; 35.9 µM (inactive) in test [3]; 55.7 µM (inactive) in test [4]; 49.7 µM (inactive) in [5]; > 100 µM (inactive) in test [6]. For the same compound, the GI50 in [7] was > 100 µM (inactive); in [8], > 100 µM (inactive); in test [9], 56.8 µM (inactive); in test [10], 36.9 µM (inactive); in [11], 55.3 µM (inactive); in [12] it was > 100 µM (inactive). Further, the GI50 in [13] was 24.2 µM (inactive); in test [14], > 100 µM (inactive); in test [15] it was > 100 µM (inactive); in [16], 61.5 µM (inactive); in test [17], 94.2 µM (inactive); in test [18], > 100 µM (inactive). For the same compound, the GI50 in test [19] is 27.1 µM (inactive); in test [20] it was > 100 µM (inactive).

As for `[N-]=[N+]=Nc1c(Cl)c(Cl)nc2ccccc12`, the GI50 in test [1] is 81.5 µM (inactive); in test [2] it was 95.9 µM (inactive); in [3] it was > 100 µM (inactive); in [4], > 100 µM (inactive); in test [5], 32.7 µM (inactive); in test [6], 76 µM (inactive). For the same compound, the GI50 was > 100 µM (inactive) in test [7]; > 100 µM (inactive) in test [8]; > 100 µM (inactive) in test [9]; 62.8 µM (inactive) in test [10]; 75.5 µM (inactive) in test [11]; > 100 µM (inactive) in [12]. For the same compound, the GI50 in test [13] is 35.3 µM (inactive); in [14], 81.5 µM (inactive); in test [15], > 100 µM (inactive); in [16], 82.8 µM (inactive); in [17], 62.1 µM (inactive); in [18], > 100 µM (inactive). The GI50 in test [19] was 85.7 µM (inactive); in [20], 72.1 µM (inactive).

Consider `Cc1cc(N(CCC#N)CCC#N)ccc1/C=C(\NC(=O)/C=C/c1ccccc1)C(=O)NN`, for which the GI50 is 32.4 µM (inactive) in test [1]; > 51.3 µM (inactive) in test [2]; > 100 µM (inactive) in test [3]; > 54.1 µM (inactive) in test [4]; > 100 µM (inactive) in test [5]; > 100 µM (inactive) in test [6]. In addition, the GI50 in test [7] is > 100 µM (inactive); in [8] it was 37.1 µM (inactive); in test [9], > 100 µM (inactive); in test [10], > 100 µM (inactive); in test [11], > 65.8 µM (inactive); in test [12], > 100 µM (inactive). In addition, the GI50 in test [13] is 20.3 µM (inactive); in test [14] it was > 100 µM (inactive); in test [15], 39.1 µM (inactive); in [16] it was 40 µM (inactive); in test [17], > 100 µM (inactive); in test [18], 31 µM (inactive). In addition, the GI50 in test [19] and in [20] was > 100 µM (inactive) throughout.

Consider `CC(=O)O[C@H]1C[C@H](O[C@H]2[C@@H](O)C[C@H](O[C@H]3[C@@H](O)C[C@H](O[C@H]4CC[C@@]5(C)[C@H](CC[C@@H]6[C@@H]5CC[C@]5(O)[C@@H](C7=CC(=O)OC7)CC[C@]65O)C4)O[C@@H]3C)O[C@@H]2C)O[C@H](C)[C@H]1O[C@@H]1O[C@H](CO)[C@@H](O)[C@H](O)[C@H]1O`, for which the GI50 was 2.35 µM (inactive) in test [1]; 0.428 µM (active) in test [2]; 1.52 µM (inactive) in test [3]; 0.452 µM (active) in test [4]; 0.0262 µM (active) in [5]; 0.258 µM (active) in [6]. For the same compound, the GI50 in test [7] was 1.5 µM (inactive); in test [8], 0.0664 µM (active); in test [9] it was 0.45 µM (active); in test [10], 0.462 µM (active); in test [11] it was 0.137 µM (active); in test [12], 0.403 µM (active). Also, the GI50 is 0.792 µM (active) in test [13]; 0.383 µM (active) in test [14]; 0.185 µM (active) in [15]; 0.344 µM (active) in test [16]; 0.271 µM (active) in [17]; 0.555 µM (active) in [18]. Further, the results for the GI50 in test [19] and in test [20] were 0.497 µM (active) and 0.243 µM (active), respectively.

Turning to `O=C1C=CC(=O)N1c1ccc(I)cc1`, the GI50 is 23.6 µM (inactive) in [1]; 16.4 µM (inactive) in test [2]; 19.1 µM (inactive) in [3]; 31.6 µM (inactive) in test [4]; 2.56 µM (inactive) in test [5]; 20.6 µM (inactive) in test [6]. Besides, the GI50 is 18.5 µM (inactive) in test [7]; 15.7 µM (inactive) in test [8]; 15.2 µM (inactive) in test [9]; 6.11 µM (inactive) in test [10]; 23.8 µM (inactive) in [11]; 17.9 µM (inactive) in test [12]. Besides, the GI50 is 21.3 µM (inactive) in test [13]; 20.2 µM (inactive) in test [14]; 22.5 µM (inactive) in [15]; 20.5 µM (inactive) in test [16]; 19.9 µM (inactive) in [17]; 16.5 µM (inactive) in [18]. Moreover, the GI50 in [19] was 20.2 µM (inactive); in test [20] it was 19.2 µM (inactive).

Consider `CNc1cccnc1/C=N/N=C(/N)S`, for which the GI50 is 6.38 µM (inactive) in [1]; 8.65 µM (inactive) in [2]; 1.82 µM (inactive) in test [3]; 0.675 µM (active) in test [4]; 1.5 µM (inactive) in [5]; 1.33 µM (inactive) in [6]. In addition, the GI50 in test [7] was 7.74 µM (inactive); in test [8], 3.11 µM (inactive); in [9] it was 4.69 µM (inactive); in [10], > 4.59 µM (inactive); in test [11], 0.403 µM (active); in test [12] it was 1.95 µM (inactive). Moreover, the GI50 in test [13] is 0.849 µM (active); in [14] it was 5.35 µM (inactive); in [15], 0.279 µM (active); in test [16], 2 µM (inactive); in test [17], 2.02 µM (inactive); in [18], 4.49 µM (inactive). The results for the GI50 in test [19] and in test [20] were 4.09 µM (inactive) and 0.685 µM (active), respectively.
